# Measurements published in patent US4443436A, “C-20-Modified macrolide derivatives of the macrolide antibiotics tylosin, desmycosin, macrocin, and lactenocin” (Eli Lilly and Company, priority 1982, dated 1984).
# Like-named read-outs stand apart in the source and are kept apart here.
# Experiments:
# [1] = system: Staphylococcus epidermidis EPI2; assay: MIC, standard agar-dilution assay, Staphylococcus epidermidis EPI2; assay type: cell-based
# Mycoplasma hyopneumoniae = assay: MIC, broth-dilution microtiter test, Mycoplasma hyopneumoniae; assay type: cell-based
# Excerpt: (§1) The MIC's in Table X were obtained using conventional broth-dilution microtiter tests.
# [2] = system: Streptococcus pneumoniae Park I; assay: microbe, parasite or virus in culture; assay type: cell-based
# [3] = system: Haemophilus influenzae Holt; assay: MIC, standard agar-dilution assay, Haemophilus influenzae Holt; assay type: cell-based; settings: Haemophilus influenzae Holt; ampicillin-sensitive strain; agar dilution
# [4] = system: Haemophilus influenzae R252; assay: MIC, standard agar-dilution assay, Haemophilus influenzae R252; assay type: cell-based
# [5] = system: Pasteurella hemolytica 22C; assay: MIC, broth-dilution microtiter test, Pasteurella hemolytica 22C; assay type: cell-based; settings: Pasteurella hemolytica 22C, broth-dilution microtiter
# Excerpt: as §1
# Staphylococcus aureus = assay: MIC, broth-dilution microtiter test, Staphylococcus aureus; assay type: cell-based
# Excerpt: as §1
# [6] = system: Staphylococcus aureus X400; assay: MIC, standard agar-dilution assay, Staphylococcus aureus X400; assay type: cell-based
# [7] = system: Pasteurella multocida 17E; assay: MIC, broth-dilution microtiter test, Pasteurella multocida 17E; assay type: cell-based; settings: Pasteurella multocida 17E, bovine isolate, broth-dilution microtiter
# Excerpt: as §1
# [8] = system: Streptococcus Group D X66; assay: MIC, standard agar-dilution assay, Streptococcus Group D X66; assay type: cell-based
# [9] = system: Streptococcus pyogenes C203; assay: MIC, standard agar-dilution assay, Streptococcus pyogenes C203; assay type: cell-based
# [10] = system: Staphylococcus aureus V41; assay: MIC, standard agar-dilution assay, Staphylococcus aureus V41; assay type: cell-based
# [11] = system: Staphylococcus aureus X1.1; assay: MIC, standard agar-dilution assay, Staphylococcus aureus X1.1; assay type: cell-based
# Streptococcus bovis 80 = assay: MIC, broth-dilution microtiter test, Streptococcus bovis 80; assay type: cell-based
# Excerpt: as §1
# Mycoplasma hyorhinis = assay: MIC, broth-dilution microtiter test, Mycoplasma hyorhinis; assay type: cell-based; settings: Mycoplasma hyorhinis, broth-dilution microtiter
# Excerpt: as §1
# [12] = system: Streptococcus pyogenes C203; assay: In vivo protection of mice experimentally infected with S. pyogenes C203; settings: mice, doses given 1 and 4 hours post-infection; for ED50: Streptococcus pyogenes
# Description: The C-20 modified derivatives of this invention have shown in vivo antimicrobial activity against experimentally-induced infections in laboratory animals. When two doses of test compound were administered to mice experimentally infected with S. pyogenes C203, the activity observed was measured as an ED50 value [effective dose in mg/kg to protect 50% of the test animals: see Warren Wick, et al., J. Bacteriol. 81, 233-235 (1961)].
# Mycoplasma gallisepticum = assay: MIC, broth-dilution microtiter test, Mycoplasma gallisepticum; assay type: cell-based
# Excerpt: as §1
# [13] = system: Pasteurella multocida 60A; assay: MIC, broth-dilution microtiter test, Pasteurella multocida 60A; assay type: cell-based
# Excerpt: as §1
# Streptococcus Group 9960 = assay: MIC, standard agar-dilution assay, Streptococcus Group 9960; assay type: cell-based; settings: Streptococcus Group 9960, agar dilution
# [14] = system: Staphylococcus epidermidis EPI1; assay: MIC, standard agar-dilution assay, Staphylococcus epidermidis EPI1; assay type: cell-based
# [15] = system: Staphylococcus aureus S13E; assay: MIC, standard agar-dilution assay, Staphylococcus aureus S13E; assay type: cell-based
# Mycoplasma synoviae = assay: MIC, broth-dilution microtiter test, Mycoplasma synoviae; assay type: cell-based
# Excerpt: as §1
# [16] = Staphylococcus epidermidis EPI2, agar dilution
# [17] = Mycoplasma hyopneumoniae, broth-dilution microtiter
# [18] = Streptococcus pneumoniae Park I, agar dilution
# [19] = Haemophilus influenzae R252, ampicillin-resistant strain, agar dilution
# [20] = Staphylococcus aureus X400, methicillin-resistant strain, agar dilution
# [21] = Streptococcus Group D X66, agar dilution
# [22] = Streptococcus pyogenes C203, agar dilution
# [23] = Staphylococcus aureus V41, penicillin-resistant strain, agar dilution
# [24] = Staphylococcus aureus X1.1, agar dilution
# [25] = Streptococcus bovis 80, broth-dilution microtiter
# [26] = Mycoplasma gallisepticum, broth-dilution microtiter
# [27] = Pasteurella multocida 60A, avian isolate, broth-dilution microtiter
# [28] = Staphylococcus epidermidis EPI1, agar dilution
# [29] = Staphylococcus aureus S13E, agar dilution
# [30] = Mycoplasma synoviae, broth-dilution microtiter
smiles,measurement,setting,value
"CCC(=O)OC1C(C)OC(OC2C(CCN3C(=O)c4ccccc4C3=O)CC(C)C(=O)C=CC(C)=CC(COC3OC(C)C(O)C(OC)C3OC)C(CC)OC(=O)CC(O)C2C)C(OC(=O)CC)C1N(C)C (centres unmarked) [Compound 66, 20-DH-DO-20-N-Phthalimido-2',4'-di-O-propionyldesmycosin]",MIC,[1]; [16],0.25 µg/mL
same,MIC,Mycoplasma hyopneumoniae; [17],25 µg/mL
same,MIC,[2]; [18],0.5 µg/mL
same,MIC,[3],64 µg/mL
same,MIC,[4]; [19],64 µg/mL
same,MIC,[5],25 µg/mL
same,MIC,Staphylococcus aureus; broth-dilution microtiter,0.78 µg/mL
same,MIC,[6]; [20],1 µg/mL
same,MIC,[7],25 µg/mL
same,MIC,[8]; [21],8 µg/mL
same,MIC,[9]; [22],2 µg/mL
same,MIC,[10]; [23],0.5 µg/mL
same,MIC,[11]; [24],0.5 µg/mL
same,MIC,Streptococcus bovis 80; [25],6.25 µg/mL
same,MIC,Mycoplasma hyorhinis,50 µg/mL
same,"ED50, Oral",[12]; oral,31 mg/kg × 2
same,"ED50, Subcutaneous",[12]; subcutaneous,> 6.3 mg/kg × 2
same,MIC,Mycoplasma gallisepticum; [26],0.09 µg/mL
same,MIC,[13]; [27],25 µg/mL
same,MIC,Streptococcus Group 9960,8 µg/mL
same,MIC,[14]; [28],0.5 µg/mL
same,MIC,[15]; [29],0.5 µg/mL
"CCC1OC(=O)CC(O)C(C)C(OC2OC(C)C(O)C(N(C)C)C2O)C(CCOc2cccc(N(C)C)c2)CC(C)C(=O)C=CC(C)=CC1COC1OC(C)C(O)C(OC)C1OC (centres unmarked) [Compound 39, 20-DH-20-O-[m-(N,N-Dimethylamino)phenyl]desmycosin]",MIC,"[1]; Staphylococcus epidermidis, EPI2",0.25 µg/mL
same,MIC,Mycoplasma synoviae; Mycoplasmopsis synoviae,1.56 µg/mL
same,MIC,Mycoplasma hyopneumoniae; Mesomycoplasma hyopneumoniae,6.25 µg/mL
same,MIC,[2]; Streptococcus pneumoniae,1 µg/mL
same,MIC,"[4]; Haemophilus influenzae, R252",16 µg/mL
same,MIC,[5]; read-out: MIC,> 50 µg/mL
same,MIC,Staphylococcus aureus,6.25 µg/mL
same,MIC,"[6]; Staphylococcus aureus, X400",0.5 µg/mL
same,MIC,[7]; read-out: MIC,25 µg/mL
same,MIC,[8],4 µg/mL
same,MIC,"[9]; Streptococcus pyogenes, C203",0.25 µg/mL
same,MIC,"[10]; Staphylococcus aureus, V41",0.5 µg/mL
same,MIC,"[11]; Staphylococcus aureus, X1.1",0.5 µg/mL
same,MIC,"Streptococcus bovis 80; Streptococcus equinus, 80",1.56 µg/mL
same,MIC,Mycoplasma hyorhinis; read-out: MIC,25 µg/mL
same,ED50,"[12]; C203, sc, subcutaneous, read-out: ED50, Subcutaneous",6.7 mg/kg
same,ED50,"[12]; C203, oral, read-out: ED50, Oral",19 mg/kg
same,MIC,Mycoplasma gallisepticum; Mycoplasmoides gallisepticum,1.56 µg/mL
same,MIC,"[13]; Pasteurella multocida, 60A",12.5 µg/mL
same,MIC,"Streptococcus Group 9960; GROUP9960, read-out: MIC",8 µg/mL
same,MIC,"[14]; Staphylococcus epidermidis, EPI1",0.5 µg/mL
same,MIC,"[15]; Staphylococcus aureus, S13E",0.5 µg/mL
"CCC(=O)OC1C(OC2C(CCCl)CC(C)C(=O)C=CC(C)=CC(COC3OC(C)C(O)C(OC)C3OC)C(CC)OC(=O)CC(O)C2C)OC(C)C(O)C1N(C)C (centres unmarked) [Compound 69, 20-DH-DO-20-Chloro-2'-O-propionyldesmycosin]",MIC,[1]; [16],0.12 µg/mL
same,MIC,Mycoplasma hyopneumoniae; [17],12.5 µg/mL
same,MIC,[2]; [18],0.25 µg/mL
same,MIC,[3],16 µg/mL
same,MIC,[4]; [19],16 µg/mL
same,MIC,[5],25 µg/mL
same,MIC,Staphylococcus aureus; broth-dilution microtiter,0.78 µg/mL
same,MIC,[6]; [20],0.5 µg/mL
same,MIC,[7],25 µg/mL
same,MIC,[8]; [21],8 µg/mL
same,MIC,[9]; [22],2 µg/mL
same,MIC,[10]; [23],0.25 µg/mL
same,MIC,[11]; [24],0.25 µg/mL
same,MIC,Streptococcus bovis 80; [25],6.25 µg/mL
same,MIC,Mycoplasma hyorhinis,50 µg/mL
same,"ED50, Oral",[12]; oral,27 mg/kg × 2
same,"ED50, Subcutaneous",[12]; subcutaneous,3.3 mg/kg × 2
same,MIC,Mycoplasma gallisepticum; [26],0.39 µg/mL
same,MIC,[13]; [27],2.5 µg/mL
same,MIC,Streptococcus Group 9960,8 µg/mL
same,MIC,[14]; [28],0.25 µg/mL
same,MIC,[15]; [29],0.25 µg/mL
"CCC1OC(=O)CC(O)C(C)C(OC2OC(C)C(O)C(N(C)C)C2O)C(CCOc2ncnc3ccccc23)CC(C)C(=O)C=CC(C)=CC1COC1OC(C)C(O)C(OC)C1OC (centres unmarked) [Compound 51, 20-DH-20-O-(Quinazolin-4-yl)desmycosin]",MIC,[1]; [16],0.12 µg/mL
same,MIC,Mycoplasma synoviae; [30],0.39 µg/mL
same,MIC,[2]; [18],0.5 µg/mL
same,MIC,[3],16 µg/mL
same,MIC,[4]; [19],32 µg/mL
same,MIC,[5],"-- (Not active at 50 mcg/ml, the highest level tested)"
same,MIC,Staphylococcus aureus; broth-dilution microtiter,0.78 µg/mL
same,MIC,[6]; [20],0.5 µg/mL
same,MIC,[7],12.5 µg/mL
same,MIC,[8]; [21],4 µg/mL
same,MIC,[9]; [22],0.5 µg/mL
same,MIC,[10]; [23],0.25 µg/mL
same,MIC,[11]; [24],0.25 µg/mL
same,MIC,Streptococcus bovis 80; [25],0.78 µg/mL
same,MIC,Mycoplasma hyorhinis,12.5 µg/mL
same,"ED50, Oral",[12]; oral,> 50 mg/kg × 2
same,"ED50, Subcutaneous",[12]; subcutaneous,5.4 mg/kg × 2
same,MIC,Mycoplasma gallisepticum; [26],≤ 0.048 µg/mL
same,MIC,[13]; [27],12.5 µg/mL
same,MIC,Streptococcus Group 9960,4 µg/mL
same,MIC,[14]; [28],0.25 µg/mL
same,MIC,[15]; [29],0.25 µg/mL
"CCC1OC(=O)CC(O)C(C)C(OC2OC(C)CC(N(C)C)C2O)C(CCOc2ccccc2)CC(C)C(=O)C=CC(C)=CC1COC1OC(C)C(O)C(OC)C1OC (centres unmarked) [Compound 70, 20-DH-20-O-Phenyl-4'-deoxydesmycosin]",MIC,[1]; [16],0.12 µg/mL
same,MIC,Mycoplasma synoviae; [30],0.78 µg/mL
same,MIC,[2]; [18],0.5 µg/mL
same,MIC,[3],4 µg/mL
same,MIC,[4]; [19],4 µg/mL
same,MIC,[5],50 µg/mL
same,MIC,Staphylococcus aureus; broth-dilution microtiter,0.78 µg/mL
same,MIC,[6]; [20],0.25 µg/mL
same,MIC,[7],12.5 µg/mL
same,MIC,[8]; [21],2 µg/mL
same,MIC,[9]; [22],0.5 µg/mL
same,MIC,[10]; [23],0.25 µg/mL
same,MIC,[11]; [24],0.25 µg/mL
same,MIC,Streptococcus bovis 80; [25],6.25 µg/mL
same,MIC,Mycoplasma hyorhinis,12.5 µg/mL
same,"ED50, Oral",[12]; oral,7 mg/kg × 2
same,"ED50, Subcutaneous",[12]; subcutaneous,3.1 mg/kg × 2
same,MIC,Mycoplasma gallisepticum; [26],0.39 µg/mL
same,MIC,[13]; [27],12.5 µg/mL
same,MIC,Streptococcus Group 9960,4 µg/mL
same,MIC,[14]; [28],0.25 µg/mL
same,MIC,[15]; [29],0.25 µg/mL
"CCC(=O)OC1C(OC2C(CCN3C(=O)c4ccccc4C3=O)CC(C)C(=O)C=CC(C)=CC(COC3OC(C)C(O)C(OC)C3OC)C(CC)OC(=O)CC(O)C2C)OC(C)C(O)C1N(C)C (centres unmarked) [Compound 65, 20-DH-DO-20-N-Phthalimido-2'-O-propionyldesmycosin]",MIC,Mycoplasma hyopneumoniae; [17],12.5 µg/mL
same,MIC,[2]; [18],1 µg/mL
same,MIC,[3],64 µg/mL
same,MIC,[4]; [19],32 µg/mL
same,MIC,[5],25 µg/mL
same,MIC,Staphylococcus aureus; broth-dilution microtiter,1.56 µg/mL
same,MIC,[6]; [20],0.5 µg/mL
same,MIC,[7],25 µg/mL
same,MIC,[8]; [21],8 µg/mL
same,MIC,[9]; [22],0.5 µg/mL
same,MIC,[10]; [23],0.5 µg/mL
same,MIC,[11]; [24],0.5 µg/mL
same,MIC,Streptococcus bovis 80; [25],6.25 µg/mL
same,MIC,Mycoplasma hyorhinis,"-- (Not active at 50 mcg/ml, the highest level tested)"
same,"ED50, Oral",[12]; oral,20 mg/kg × 2
same,"ED50, Subcutaneous",[12]; subcutaneous,1.7 mg/kg × 2
same,MIC,Mycoplasma gallisepticum; [26],< 0.05 µg/mL
same,MIC,[13]; [27],12.5 µg/mL
same,MIC,Streptococcus Group 9960,8 µg/mL
same,MIC,[14]; [28],0.25 µg/mL
same,MIC,[15]; [29],0.5 µg/mL
